Reference: PubChem BioAssay AID330 (DTP/NCI, 2004)
Where “and” joins values, the source holds several entries; their conditions need not be identical. Equal values may be shown once. Inconclusive results and toxic doses are left out. Rule for the calls: active = survival T/C of 150% or more; inactive = T/C below 125% in these data.

Test system: P388 leukemia ip, CD2F1 mice, survival T/C
Assay: NCI In Vivo Anticancer Drug Screen. Data for tumor model P388 Leukemia (intraperitoneal) in CD2F1 (CDF1) mice
Details: endpoint: median survival time, higher = longer survival
Outline: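 Mice carrying the transplanted tumor received test compound or vehicle. Survival was recorded in each group, and the value is the treated-group measurement divided by that of the vehicle-treated control group.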

[1] = dose: 25.0 mg/kg/injection, schedule: Q01DX005 (ip), vehicle: saline
[2] = dose: 50.0 mg/kg/injection, schedule: Q01DX005 (ip), vehicle: saline
[3] = dose: 50.0 mg/kg/injection, schedule: Q01DX009 (ip), vehicle: saline with Tween-80
[4] = dose: 400.0 mg/kg/injection, schedule: Q04DX003 (ip), vehicle: saline with Tween-80
[5] = dose: 25.0 mg/kg/injection, schedule: Q01DX009 (ip), vehicle: other
[6] = dose: 50.0 mg/kg/injection, schedule: Q01DX009 (ip), vehicle: other
[7] = dose: 100.0 mg/kg/injection, schedule: Q01DX009 (ip), vehicle: other
[8] = dose: 60.0 mg/kg/injection, schedule: Q01DX005 (ip), vehicle: saline with Tween-80
[9] = dose: 120.0 mg/kg/injection, schedule: Q01DX005 (ip), vehicle: saline with Tween-80
[10] = dose: 240.0 mg/kg/injection, schedule: Q01DX005 (ip), vehicle: saline with Tween-80
[11] = dose: 50.0 mg/kg/injection, schedule: Q01DX005 (ip), vehicle: Klucel (hydroxypropylcellulose) (HPC)
[12] = dose: 100.0 mg/kg/injection, schedule: Q01DX005 (ip), vehicle: Klucel (hydroxypropylcellulose) (HPC)
[13] = dose: 200.0 mg/kg/injection, schedule: Q01DX005 (ip), vehicle: Klucel (hydroxypropylcellulose) (HPC)
[14] = dose: 25.0 mg/kg/injection, schedule: Q01DX001 (ip), vehicle: saline with Tween-80
[15] = dose: 50.0 mg/kg/injection, schedule: Q01DX001 (ip), vehicle: saline with Tween-80
[16] = dose: 100.0 mg/kg/injection, schedule: Q01DX001 (ip), vehicle: saline with Tween-80
[17] = dose: 12.5 mg/kg/injection, schedule: Q01DX005 (ip), vehicle: Klucel (hydroxypropylcellulose) (HPC)
[18] = dose: 25.0 mg/kg/injection, schedule: Q01DX005 (ip), vehicle: Klucel (hydroxypropylcellulose) (HPC)
[19] = dose: 50.0 mg/kg/injection, schedule: Q01DX005 (ip), vehicle: saline with Tween-80
[20] = dose: 100.0 mg/kg/injection, schedule: Q01DX005 (ip), vehicle: saline with Tween-80
[21] = dose: 200.0 mg/kg/injection, schedule: Q01DX005 (ip), vehicle: saline with Tween-80

Measured: T/C

CN(C)CCC=C1c2ccccc2CCc2ccccc21
inactive: dose: 12.5 mg/kg/injection, schedule: Q01DX005 (ip), vehicle: saline 101 % of control | [1] 103 % of control | [2] 109 % of control and 116 % of control

CN(C)c1ccc2ccc(N(C)C)nc2c1
inactive: dose: 12.5 mg/kg/injection, schedule: Q01DX009 (ip), vehicle: saline with Tween-80 93 % of control | dose: 25.0 mg/kg/injection, schedule: Q01DX009 (ip), vehicle: saline with Tween-80 117 % of control | [3] 89 % of control and 95 % of control

O=S(=O)(O)SCCN1CCCC1
inactive: dose: 12.5 mg/kg/injection, schedule: Q01DX009 (ip), vehicle: saline 105 % of control | dose: 25.0 mg/kg/injection, schedule: Q01DX009 (ip), vehicle: saline 110 % of control | dose: 50.0 mg/kg/injection, schedule: Q01DX009 (ip), vehicle: saline 110 % of control

CCC(O)(c1ccccc1)C(O)c1ccccc1 (centres undefined)
inactive: dose: 25.0 mg/kg/injection, schedule: Q01DX009 (ip), vehicle: Klucel (hydroxypropylcellulose) (HPC) 98 % of control | dose: 50.0 mg/kg/injection, schedule: Q01DX009 (ip), vehicle: Klucel (hydroxypropylcellulose) (HPC) 98 % of control | dose: 50.0 mg/kg/injection, schedule: Q01DX009 (ip), vehicle: saline + alcohol 102 % of control and 124 % of control | dose: 100.0 mg/kg/injection, schedule: Q01DX009 (ip), vehicle: Klucel (hydroxypropylcellulose) (HPC) 97 % of control | dose: 100.0 mg/kg/injection, schedule: Q01DX009 (ip), vehicle: saline + alcohol 99 % of control and 123 % of control | dose: 200.0 mg/kg/injection, schedule: Q01DX009 (ip), vehicle: Klucel (hydroxypropylcellulose) (HPC) 88 % of control | dose: 200.0 mg/kg/injection, schedule: Q01DX009 (ip), vehicle: saline + alcohol 98 % of control | dose: 400.0 mg/kg/injection, schedule: Q01DX009 (ip), vehicle: Klucel (hydroxypropylcellulose) (HPC) 96 % of control

O=C1c2cccc([N+](=O)[O-])c2C(=O)N1CC[P+](c1ccccc1)(c1ccccc1)c1ccccc1
inactive: dose: 0.78 mg/kg/injection, schedule: Q01DX009 (ip), vehicle: water 97 % of control | dose: 1.56 mg/kg/injection, schedule: Q01DX009 (ip), vehicle: water 100 % of control | dose: 3.13 mg/kg/injection, schedule: Q01DX009 (ip), vehicle: water 94 % of control | dose: 6.25 mg/kg/injection, schedule: Q01DX009 (ip), vehicle: water 97 % of control | dose: 12.5 mg/kg/injection, schedule: Q01DX009 (ip), vehicle: water 95 % of control | dose: 25.0 mg/kg/injection, schedule: Q01DX009 (ip), vehicle: water 100 % of control | dose: 50.0 mg/kg/injection, schedule: Q01DX009 (ip), vehicle: water 109 % of control | dose: 100.0 mg/kg/injection, schedule: Q01DX009 (ip), vehicle: water 107 % of control

CN=C(c1ccc(NC(=O)c2ccc(C(=O)Nc3ccc(C(=NC)N(C)C4CCCCC4)cc3)cc2)cc1)N(C)C1CCCCC1
inactive: dose: 0.78 mg/kg/injection, schedule: Q01DX005 (ip), vehicle: Klucel (hydroxypropylcellulose) (HPC) 104 % of control | dose: 1.56 mg/kg/injection, schedule: Q01DX005 (ip), vehicle: Klucel (hydroxypropylcellulose) (HPC) 101 % of control | dose: 3.12 mg/kg/injection, schedule: Q01DX005 (ip), vehicle: Klucel (hydroxypropylcellulose) (HPC) 104 % of control

c1ccc2c3c(ccc2c1)OCN(C12CC4CC(CC(C4)C1)C2)C3
inactive: dose: 100.0 mg/kg/injection, schedule: Q04DX003 (ip), vehicle: saline with Tween-80 100 % of control | dose: 200.0 mg/kg/injection, schedule: Q04DX003 (ip), vehicle: saline with Tween-80 110 % of control | [4] 110 % of control

COc1cc(Br)c(C(=O)Nc2ccccc2)cc1OC
inactive: [5] 97 % of control | [6] 97 % of control | [7] 91 % of control | dose: 200.0 mg/kg/injection, schedule: Q01DX009 (ip), vehicle: other 97 % of control | dose: 400.0 mg/kg/injection, schedule: Q01DX009 (ip), vehicle: other 97 % of control

O=C(O)COc1c2occc2cc2ccc(=O)oc12
inactive: [8] 97 % of control | [9] 96 % of control | [10] 100 % of control

CCC(/C=C/c1ccccc1)=N\Nc1ccc(Cl)cc1
inactive: [8] 104 % of control | [9] 101 % of control | [10] 98 % of control

CCOc1ccc(C(C)c2cc3c(cc2OCC)OCO3)c(C)c1 (centres undefined)
inactive: [11] 109 % of control | [12] 103 % of control | [13] 112 % of control

NNC(=O)c1ccccc1CO
inactive: [8] 96 % of control | [9] 102 % of control | [10] 113 % of control

Cc1cccc(Nc2nnc3nc(-c4ccccc4)c(-c4ccccc4)nn23)c1
inactive: [14] 94 % of control | [15] 100 % of control | [16] 91 % of control and 95 % of control

CCN(CC)c1ccc(C(=N)c2ccc(N(C)C)cc2)cc1
inactive: [17] 99 % of control | [18] 99 % of control | [11] 90 % of control and 92 % of control

CCN(CC)CCOc1ccc(-c2cc(-c3ccccc3)nc(N)n2)cc1
inactive: [1] 106 % of control | [2] 98 % of control and 100 % of control and 106 % of control | dose: 100.0 mg/kg/injection, schedule: Q01DX005 (ip), vehicle: saline 111 % of control and 114 % of control and 123 % of control

ClC(Cl)(Cl)c1cccc(C(Cl)(Cl)Cl)c1
inactive: dose: 132.0 mg/kg/injection, schedule: Q04DX003 (ip), vehicle: Klucel (hydroxypropylcellulose) (HPC) 113 % of control | dose: 200.0 mg/kg/injection, schedule: Q04DX003 (ip), vehicle: Klucel (hydroxypropylcellulose) (HPC) 100 % of control | dose: 264.0 mg/kg/injection, schedule: Q04DX003 (ip), vehicle: saline with Tween-80 95 % of control | dose: 300.0 mg/kg/injection, schedule: Q04DX003 (ip), vehicle: Klucel (hydroxypropylcellulose) (HPC) 113 % of control | [4] 91 % of control | dose: 600.0 mg/kg/injection, schedule: Q04DX003 (ip), vehicle: saline with Tween-80 108 % of control

COc1ccc2c(c1)C(c1cccc3ccccc13)OC2=O (centres undefined)
inactive: dose: 6.25 mg/kg/injection, schedule: Q01DX005 (ip), vehicle: Klucel (hydroxypropylcellulose) (HPC) 103 % of control | [17] 92 % of control | [18] 87 % of control | [11] 90 % of control

CC1=CCc2c(c(NS(=O)(=O)c3ccccc3)c3ccccc3c2NS(=O)(=O)c2ccccc2)C1
inactive: [14] 105 % of control | [15] 90 % of control | [16] 90 % of control

CNC(=O)OCc1c(COC(=O)NC)c2n(c1-c1ccc(Cl)c(Cl)c1)CCS2(=O)=O
inactive: dose: 25.0 mg/kg/injection, schedule: Q01DX005 (ip), vehicle: saline with Tween-80 108 % of control | [19] 92 % of control | [20] 88 % of control | [21] 92 % of control

COc1ccc2nc3cc(Cl)ccc3c(Nc3ccc(NC(C)=O)cc3)c2n1
inactive: dose: 6.25 mg/kg/injection, schedule: Q01DX009 (ip), vehicle: other 106 % of control | dose: 12.5 mg/kg/injection, schedule: Q01DX009 (ip), vehicle: other 102 % of control | [5] 100 % of control | [6] 96 % of control | [7] 99 % of control

Ic1ccc(N=Cc2cccs2)cc1
inactive: [3] 106 % of control | dose: 100.0 mg/kg/injection, schedule: Q01DX009 (ip), vehicle: saline with Tween-80 108 % of control | dose: 200.0 mg/kg/injection, schedule: Q01DX009 (ip), vehicle: saline with Tween-80 123 % of control | dose: 400.0 mg/kg/injection, schedule: Q01DX009 (ip), vehicle: saline with Tween-80 115 % of control

CC1CCC2C(C)C3C(CC4C5CCC6CC(O)CCC6(C)C5CCC43CO)N2C1 (centres undefined)
inactive: [11] 101 % of control | [12] 108 % of control | [13] 113 % of control

CCN(CC)CCCC(C)Nc1cc(O)c2c(c1O)C(=O)c1ccccc1C2=O (centres undefined)
inactive: [19] 102 % of control | [20] 98 % of control | [21] 111 % of control
